In ChEMBL document CHEMBL1909046, “DrugMatrix in vitro pharmacology data”:

Experiments:
[1] = DRUGMATRIX: ATPase, Na+/K+ enzyme inhibition (substrate: ATP); type: tissue-based, Sus scrofa, Heart; conditions: Not Active = under 50% inhibition at 10 µM
[2] = biological target: Prostaglandin G/H synthase 1 (Homo sapiens, UniProt P23219); assay: biochemical; type: tissue-based, Platelet; conditions: platelet;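 note: inhibition of COX-1 enzyme activity, with arachidonic acid supplied as substrate; in other assays of this panel Not Active means under 50% inhibition at 10 µM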
Sequence of Prostaglandin G/H synthase 1 (P23219 whole entry): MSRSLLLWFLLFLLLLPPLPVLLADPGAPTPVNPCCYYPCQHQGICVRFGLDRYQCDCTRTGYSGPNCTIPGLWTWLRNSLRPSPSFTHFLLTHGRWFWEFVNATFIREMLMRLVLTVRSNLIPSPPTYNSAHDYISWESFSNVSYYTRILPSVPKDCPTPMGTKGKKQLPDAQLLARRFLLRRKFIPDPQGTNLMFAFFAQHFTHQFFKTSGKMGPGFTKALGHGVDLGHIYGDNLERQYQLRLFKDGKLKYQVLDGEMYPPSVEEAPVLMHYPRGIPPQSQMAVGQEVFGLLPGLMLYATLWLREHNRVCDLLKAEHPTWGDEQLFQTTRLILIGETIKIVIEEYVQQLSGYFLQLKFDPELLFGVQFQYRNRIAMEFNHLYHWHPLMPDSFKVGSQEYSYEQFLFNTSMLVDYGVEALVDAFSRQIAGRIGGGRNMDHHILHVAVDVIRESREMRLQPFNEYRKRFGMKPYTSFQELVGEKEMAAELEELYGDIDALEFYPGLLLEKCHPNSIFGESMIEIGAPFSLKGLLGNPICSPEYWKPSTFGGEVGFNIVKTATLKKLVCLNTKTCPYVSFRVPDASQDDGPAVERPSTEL

[3] = biological target: D(1A) dopamine receptor (Homo sapiens, UniProt P21728); assay: DRUGMATRIX: Dopamine D1 radioligand binding (ligand: [3H] SCH-23390); type: cell membranes, CHO, Membrane; conditions: cho; Not Active = under 50% inhibition at 10 µM
Sequence of D(1A) dopamine receptor (P21728 whole entry): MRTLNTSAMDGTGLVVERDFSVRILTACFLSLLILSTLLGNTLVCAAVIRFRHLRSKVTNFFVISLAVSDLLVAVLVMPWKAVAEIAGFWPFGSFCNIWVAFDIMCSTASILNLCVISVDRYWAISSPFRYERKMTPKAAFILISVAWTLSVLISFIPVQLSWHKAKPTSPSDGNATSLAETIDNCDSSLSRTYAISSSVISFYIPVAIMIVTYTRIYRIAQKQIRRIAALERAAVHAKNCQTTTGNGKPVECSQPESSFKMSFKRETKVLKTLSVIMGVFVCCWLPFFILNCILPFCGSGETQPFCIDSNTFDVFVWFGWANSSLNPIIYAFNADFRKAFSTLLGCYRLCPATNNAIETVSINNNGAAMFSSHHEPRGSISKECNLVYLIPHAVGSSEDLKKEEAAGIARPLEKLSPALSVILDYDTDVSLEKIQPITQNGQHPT

[4] = DRUGMATRIX: GABAA, Chloride Channel, TBOB radioligand binding (ligand: [3H] TBOB); type: cell membranes, Rattus norvegicus, Wistar, Cerebral cortex, Membrane; conditions: Not Active = under 50% inhibition at 10 µM
[5] = biological target: Insulin receptor (Rattus norvegicus, UniProt P15127); type: cell membranes, Wistar, Liver, Membrane; note: in other assays of this panel Not Active means under 50% inhibition at 10 µM
Sequence of Insulin receptor (P15127 27-759 limits assumed): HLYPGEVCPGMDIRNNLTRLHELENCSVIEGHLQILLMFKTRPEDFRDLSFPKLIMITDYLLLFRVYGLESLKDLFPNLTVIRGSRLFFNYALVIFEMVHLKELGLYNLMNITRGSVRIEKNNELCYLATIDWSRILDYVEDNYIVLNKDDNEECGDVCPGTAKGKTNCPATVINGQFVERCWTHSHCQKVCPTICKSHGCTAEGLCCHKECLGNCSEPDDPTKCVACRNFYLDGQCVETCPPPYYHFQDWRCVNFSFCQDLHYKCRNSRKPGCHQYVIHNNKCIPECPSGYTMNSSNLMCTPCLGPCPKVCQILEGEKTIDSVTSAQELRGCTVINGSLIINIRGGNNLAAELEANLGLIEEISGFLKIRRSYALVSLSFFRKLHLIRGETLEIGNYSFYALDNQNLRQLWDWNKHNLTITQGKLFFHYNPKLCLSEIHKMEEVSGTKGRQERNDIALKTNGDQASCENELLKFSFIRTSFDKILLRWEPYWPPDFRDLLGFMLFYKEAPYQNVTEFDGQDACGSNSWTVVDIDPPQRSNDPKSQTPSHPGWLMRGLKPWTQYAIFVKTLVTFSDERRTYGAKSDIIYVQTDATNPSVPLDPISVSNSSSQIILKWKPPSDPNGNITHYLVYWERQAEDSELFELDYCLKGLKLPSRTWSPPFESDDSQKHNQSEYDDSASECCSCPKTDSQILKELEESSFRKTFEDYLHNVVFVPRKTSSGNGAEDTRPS
Sequence of Insulin receptor (P15127 764-1383 limits assumed): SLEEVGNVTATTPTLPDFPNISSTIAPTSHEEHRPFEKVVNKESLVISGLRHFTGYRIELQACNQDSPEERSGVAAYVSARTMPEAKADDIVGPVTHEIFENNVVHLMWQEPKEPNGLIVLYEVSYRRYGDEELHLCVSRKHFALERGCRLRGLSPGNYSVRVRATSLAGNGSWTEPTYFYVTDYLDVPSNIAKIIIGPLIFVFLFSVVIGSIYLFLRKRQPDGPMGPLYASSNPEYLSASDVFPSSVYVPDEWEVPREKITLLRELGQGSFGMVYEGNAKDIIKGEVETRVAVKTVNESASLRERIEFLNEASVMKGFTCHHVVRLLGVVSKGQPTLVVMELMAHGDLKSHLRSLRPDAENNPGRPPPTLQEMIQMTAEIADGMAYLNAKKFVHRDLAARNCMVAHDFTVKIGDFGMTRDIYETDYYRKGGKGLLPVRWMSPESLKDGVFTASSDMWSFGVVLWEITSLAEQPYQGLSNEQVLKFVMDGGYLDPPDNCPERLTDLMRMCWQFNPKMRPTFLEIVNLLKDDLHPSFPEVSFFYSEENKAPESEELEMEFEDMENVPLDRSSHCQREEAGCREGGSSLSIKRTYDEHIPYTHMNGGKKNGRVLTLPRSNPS

[6] = DRUGMATRIX: Nicotinic Acetylcholine radioligand binding (ligand: [125I] Epibatidine); type: cell membranes, Membrane; conditions: imr-32; Not Active = under 50% inhibition at 10 µM
[7] = biological target: cGMP-specific 3',5'-cyclic phosphodiesterase (Homo sapiens, UniProt O76074); assay: DRUGMATRIX: Phosphodiesterase PDE5 enzyme inhibition (substrate: [3H]cGMP + cGMP); type: tissue-based; conditions: platelet; Not Active = under 50% inhibition at 10 µM
[8] = biological target: T1, Cytochrome P450 1A2 (Homo sapiens, UniProt P05177); conditions: bti-tn-5b1-4; note: in other assays of this panel Not Active means under 50% inhibition at 10 µM
T1 sequence (P05177 whole entry): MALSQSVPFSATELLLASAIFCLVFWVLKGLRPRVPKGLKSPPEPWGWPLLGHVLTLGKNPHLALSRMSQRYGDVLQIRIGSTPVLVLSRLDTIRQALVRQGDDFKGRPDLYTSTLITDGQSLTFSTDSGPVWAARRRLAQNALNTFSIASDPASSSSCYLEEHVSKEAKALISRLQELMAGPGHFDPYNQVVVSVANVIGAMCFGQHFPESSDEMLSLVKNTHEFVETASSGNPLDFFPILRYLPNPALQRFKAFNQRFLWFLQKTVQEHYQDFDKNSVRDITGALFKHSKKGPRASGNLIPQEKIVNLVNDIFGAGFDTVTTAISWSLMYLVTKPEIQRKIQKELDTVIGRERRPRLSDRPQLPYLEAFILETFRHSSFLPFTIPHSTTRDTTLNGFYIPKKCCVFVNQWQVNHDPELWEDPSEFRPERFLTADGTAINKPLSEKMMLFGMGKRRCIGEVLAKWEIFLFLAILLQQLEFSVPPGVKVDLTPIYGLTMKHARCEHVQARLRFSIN

[9] = biological target: Cytochrome P450 3A4 (Homo sapiens, UniProt P08684); conditions: bti-tn-5b1-4; note: in other assays of this panel Not Active means under 50% inhibition at 10 µM
Sequence of Cytochrome P450 3A4 (P08684 whole entry): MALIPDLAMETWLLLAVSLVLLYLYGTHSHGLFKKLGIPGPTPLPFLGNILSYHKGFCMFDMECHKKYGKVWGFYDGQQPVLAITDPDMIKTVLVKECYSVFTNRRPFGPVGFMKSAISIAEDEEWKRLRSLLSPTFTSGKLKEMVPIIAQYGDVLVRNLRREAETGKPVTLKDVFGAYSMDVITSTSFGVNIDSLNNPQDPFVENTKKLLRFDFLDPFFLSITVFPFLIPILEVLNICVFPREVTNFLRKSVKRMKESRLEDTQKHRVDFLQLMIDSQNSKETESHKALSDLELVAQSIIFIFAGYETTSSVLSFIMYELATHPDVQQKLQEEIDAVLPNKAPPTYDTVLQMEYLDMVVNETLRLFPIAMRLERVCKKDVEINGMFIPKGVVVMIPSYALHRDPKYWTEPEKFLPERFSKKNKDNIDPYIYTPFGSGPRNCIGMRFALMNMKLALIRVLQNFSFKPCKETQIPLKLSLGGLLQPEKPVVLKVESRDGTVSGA

C[C@@H]1C[C@H]2[C@@H]3CCC4=CC(=O)C=C[C@]4(C)C3=CC[C@]2(C)[C@H]1C(=O)CN1CCN(c2cc(N3CCCC3)nc(N3CCCC3)n2)CC1 [TIRILAZAD]
Not Active: IC50 [1] | Ki [1] | IC50 [2] | IC50 [3] | IC50 [4] | Ki [4] | IC50 [5] | IC50 [6] | Ki [6] | IC50 [7] | IC50 [8] | Ki [8] | IC50 [9] | Ki [9]

O=C(O)C(Cl)(Cl)Cl [TRICHLOROACETIC ACID]
Not Active: IC50 [1] | Ki [1] | IC50 [2] | IC50 [3] | IC50 [4] | Ki [4] | IC50 [5] | IC50 [6] | Ki [6] | IC50 [7] | IC50 [8] | Ki [8] | IC50 [9] | Ki [9]

CC(=O)O[C@H]1C[C@@H]2CC[C@@H]3[C@H](CC[C@@]4(C)[C@H]3C[C@H]([N+]3(C)CCCCC3)[C@@H]4OC(C)=O)[C@@]2(C)C[C@@H]1N1CCCCC1.[Br-] [VECURONIUM BROMIDE]
Not Active: IC50 [1] | Ki [1] | IC50 [2] | IC50 [3] | IC50 [4] | Ki [4] | IC50 [5] | IC50 [6] | Ki [6] | IC50 [7] | IC50 [8] | Ki [8] | IC50 [9] | Ki [9]

COc1cc(C(=O)NS(=O)(=O)c2ccccc2C)ccc1Cc1cn(C)c2ccc(NC(=O)OC3CCCC3)cc12 [ZAFIRLUKAST]
Not Active: IC50 [1] | Ki [1] | IC50 [2] | IC50 [3] | IC50 [4] | Ki [4] | IC50 [5] | IC50 [6] | Ki [6] | IC50 [7] | IC50 [8] | Ki [8] | IC50 [9] | Ki [9]

Cc1cn([C@H]2C[C@H](N=[N+]=[N-])[C@@H](CO)O2)c(=O)[nH]c1=O [ZIDOVUDINE]
Not Active: IC50 [1] | Ki [1] | IC50 [2] | IC50 [3] | IC50 [4] | Ki [4] | IC50 [5] | IC50 [6] | Ki [6] | IC50 [7] | IC50 [8] | Ki [8] | IC50 [9] | Ki [9]

STANNOUS FLUORIDE
Not Active: IC50 [1] | Ki [1] | IC50 [2] | Ki [2] | IC50 [3] | Ki [3] | IC50 [4] | Ki [4] | IC50 [5] | Ki [5] | IC50 [6] | Ki [6] | IC50 [7] | Ki [7] | IC50 [8] | Ki [8] | IC50 [9] | Ki [9]

THIMEROSAL
Not Active: IC50 [1] | Ki [1] | IC50 [2] | Ki [2] | IC50 [3] | Ki [3] | IC50 [4] | Ki [4] | IC50 [5] | Ki [5] | IC50 [6] | Ki [6] | IC50 [7] | Ki [7] | IC50 [8] | Ki [8] | IC50 [9] | Ki [9]
